Experimental data published in PMC8151276, “An Integrated Approach toward NanoBRET Tracers for Analysis of GPCR Ligand Engagement” (Molecules, 2021).
One block for each compound: values may come before it.

Tests used:
Assay type in all cases: binding
[1] = biological target: T1, AVPR2 (Homo sapiens, UniProt P30518); assay: NanoBRET screen HiBiT-AVPR2 in HEK293
T1 construct: purchased Promega (in-house HiBiT-GPCR construct library, NanoBRET)
Procedure: (§1) Each tracer candidate was screened across the entire library of HiBiT-GPCR constructs using NanoBRET as the detection modality. As depicted in Figure 4A, the specificity of interactions was evaluated through decrease in BRET due to competitive displacement of a bound tracer by excess parental compound. Each tracer was analyzed for binding to each HiBiT-GPCR fusion in the absence and in the presence of competing parental compound. Briefly, HEK293 cells were transfected with HiBiT-GPCR constructs diluted into promoterless DNA to reduce expression and maximize translocation to the cell surface. Each tracer candidate was then screened at concentrations of 1 μM and 0.1 μM across cells expressing these fusions. Cells were treated for 1.5 h with tracer either alone or in the presence of 20 μM competing parental compound (i.e., control). BRET was measured upon addition of purified LgBiT and subsequent complementation with HiBiT genetically fused to a GPCR. The specificity of interactions was assessed through a decrease in BRET signal due to competitive displacement of the bound tracer. To further gauge the robustness of these interactions, the fold response over the control (i.e., BRETtracer/BRETcontrol) was calculated. We chose a 1.5-fold response, which translates to ≥7-fold signal over noise as the minimal threshold required to score an interaction as positive. […]. Below we highlight the screening results obtained for our exemplary fluorescent tracers based on Clozapine, Amitriptyline and AZD1283.
(§2) HiBiT-GPCR DNA constructs were diluted in 10 mM Tris pH 8 to a final concentration of 0.01 μg/μL, arrayed in 96-well plates and stored at −20 °C. For transfection, HEK293 cells were suspended in Opti-MEM (without phenol red) supplemented with 2% fetal bovine serum (Seradigm) and 100 units/mL penicillin–streptomycin (Gibco) at a final concentration of 220,000 cells/mL and dispensed into white 96-well plates at 90 μL/well. Subsequent transfections and screens were carried using an Agilent Bravo Automated Liquid Handling Platform. First, the 96-well HiBiT DNA arrays were diluted 25-fold in Opti-MEM (without serum or phenol red) to a final concentration of 0.0004 μg/μL and 20 μL of the diluted DNAs were transferred into new 96-well plates. Next, promoterless carrier DNA (1 μg/μL) was diluted 25-fold (0.04 μg/μL) and then dispensed into the diluted arrays at 20 μL/well. Following brief mixing, Viafect transfection reagent (Promega) diluted 16-fold into Opti-MEM was dispensed into the plates at 40 μL/well. After mixing by pipetting, plates were incubated for 10 min on the pipetting station deck. The DNA-transfection reagent complexes were then added to plates containing cells. To facilitate the screen, 10 μL of DNA-transfection reagent complexes were added in duplicates to the top 4 and bottom 4 rows, resulting in two identical 48-well arrays per plate. Plates with transfected cells were incubated for 18–20 h at 37 °C/5% CO2. A screen of each tracer across the entire library using two different concentrations requires duplicate plates of transfected cells. Depending on the number of tracers being screened, transfections can be scaled up using the same ratios. The next day, for each tracer, four 20× screening solutions in tracer dilution buffer (Promega) were prepared: two duplicates at final concentration of 20 μM and two duplicates at a final concentration of 2 μM. A competing unmodified compound was added to one of each duplicate at a final concentration of 400 μM. The four resulting solutions were diluted 4-fold in Opti-MEM without serum or phenol red to generate 5× solutions (5 µM and 0.5 µM tracer +/− 100 μM competing compound). To screen the library, a BioTek MultiFlo FX liquid dispenser was used to dispense 22.5 µL of tracer solution to the top 4 rows and 22.5 µL tracer + competing compound solution to the 4 bottom rows. Plates were briefly mixed on an orbital shaker and incubated for 1.5 h at room temperature. […]

[2] = biological target: T2, C5AR2 (Homo sapiens, UniProt Q9P296); assay: NanoBRET screen HiBiT-C5AR2 in HEK293
T2 construct: purchased Promega (in-house HiBiT-GPCR construct library, NanoBRET)
T2 sequence (Q9P296 whole entry): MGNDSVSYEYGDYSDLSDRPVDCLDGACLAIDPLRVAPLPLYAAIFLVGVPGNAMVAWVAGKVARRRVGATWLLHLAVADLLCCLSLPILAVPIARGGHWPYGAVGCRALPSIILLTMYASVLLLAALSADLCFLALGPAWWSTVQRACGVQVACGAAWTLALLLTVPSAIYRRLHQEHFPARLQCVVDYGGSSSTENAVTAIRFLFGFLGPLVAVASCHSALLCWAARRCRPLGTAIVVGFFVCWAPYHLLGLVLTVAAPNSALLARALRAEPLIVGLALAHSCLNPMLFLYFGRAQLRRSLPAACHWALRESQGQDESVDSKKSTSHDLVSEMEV
Procedure: as §1, §2

[3] = biological target: T3, CXCR5 (Homo sapiens, UniProt P32302); assay: NanoBRET screen HiBiT-CXCR5 in HEK293
T3 construct: purchased Promega (in-house HiBiT-GPCR construct library, NanoBRET)
T3 sequence (P32302 1-372): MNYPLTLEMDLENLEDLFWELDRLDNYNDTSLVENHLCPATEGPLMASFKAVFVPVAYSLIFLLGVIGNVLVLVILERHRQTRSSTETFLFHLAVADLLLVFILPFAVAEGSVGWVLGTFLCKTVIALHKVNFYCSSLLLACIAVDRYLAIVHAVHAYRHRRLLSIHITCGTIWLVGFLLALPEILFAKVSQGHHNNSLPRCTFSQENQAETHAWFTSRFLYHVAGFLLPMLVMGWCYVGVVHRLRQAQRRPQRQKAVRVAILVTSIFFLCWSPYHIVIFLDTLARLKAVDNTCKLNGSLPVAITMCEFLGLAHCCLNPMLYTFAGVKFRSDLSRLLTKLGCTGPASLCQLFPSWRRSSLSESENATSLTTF
Procedure: as §1, §2

[4] = biological target: T4, AGTR1 (Homo sapiens, UniProt P30556); assay: NanoBRET screen HiBiT-AGTR1 in HEK293
T4 construct: purchased Promega (in-house HiBiT-GPCR construct library, NanoBRET)
T4 sequence (P30556 1-359): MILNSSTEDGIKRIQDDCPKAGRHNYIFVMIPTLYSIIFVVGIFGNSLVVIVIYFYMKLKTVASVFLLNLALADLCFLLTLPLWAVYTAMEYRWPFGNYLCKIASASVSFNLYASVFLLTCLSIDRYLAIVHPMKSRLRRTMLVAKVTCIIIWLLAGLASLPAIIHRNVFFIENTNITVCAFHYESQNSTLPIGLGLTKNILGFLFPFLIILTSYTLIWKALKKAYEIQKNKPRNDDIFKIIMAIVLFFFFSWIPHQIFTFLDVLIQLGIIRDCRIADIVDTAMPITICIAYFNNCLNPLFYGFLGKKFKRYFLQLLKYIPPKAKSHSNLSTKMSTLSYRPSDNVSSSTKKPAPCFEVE
Procedure: as §1, §2

[5] = biological target: T5, CNR1 (Homo sapiens, UniProt P21554); assay: NanoBRET screen HiBiT-CNR1 in HEK293; conditions: CNR1
T5 construct: purchased Promega (in-house HiBiT-GPCR construct library, NanoBRET)
T5 sequence (P21554 whole entry): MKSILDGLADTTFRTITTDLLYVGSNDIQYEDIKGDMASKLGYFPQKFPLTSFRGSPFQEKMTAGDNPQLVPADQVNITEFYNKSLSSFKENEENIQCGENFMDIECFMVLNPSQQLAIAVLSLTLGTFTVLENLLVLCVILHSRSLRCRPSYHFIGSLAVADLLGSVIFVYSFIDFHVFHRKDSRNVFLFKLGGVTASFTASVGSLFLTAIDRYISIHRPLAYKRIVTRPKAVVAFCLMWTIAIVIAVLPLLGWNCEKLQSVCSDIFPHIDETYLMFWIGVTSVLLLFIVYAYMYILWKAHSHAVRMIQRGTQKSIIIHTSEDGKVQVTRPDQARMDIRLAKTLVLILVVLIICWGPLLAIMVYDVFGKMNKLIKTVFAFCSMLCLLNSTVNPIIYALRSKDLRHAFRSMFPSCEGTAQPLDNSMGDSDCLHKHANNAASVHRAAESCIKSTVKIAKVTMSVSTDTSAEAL
Procedure: as §1, §2

[6] = biological target: T6, GHSR (Homo sapiens, UniProt Q92847); assay: NanoBRET screen HiBiT-GHSR in HEK293
T6 construct: purchased Promega (in-house HiBiT-GPCR construct library, NanoBRET)
T6 sequence (Q92847 whole entry): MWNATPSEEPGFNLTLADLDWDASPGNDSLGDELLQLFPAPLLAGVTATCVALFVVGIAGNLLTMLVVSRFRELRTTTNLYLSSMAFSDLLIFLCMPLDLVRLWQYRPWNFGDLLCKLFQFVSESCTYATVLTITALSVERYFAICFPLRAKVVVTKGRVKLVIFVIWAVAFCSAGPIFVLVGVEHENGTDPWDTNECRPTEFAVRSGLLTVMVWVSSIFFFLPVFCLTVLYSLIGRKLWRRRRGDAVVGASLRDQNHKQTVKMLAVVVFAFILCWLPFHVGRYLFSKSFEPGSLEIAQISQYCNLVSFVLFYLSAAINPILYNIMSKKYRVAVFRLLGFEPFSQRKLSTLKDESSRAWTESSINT
Procedure: as §1, §2

[7] = tracer at 0.1μM, listed as amitriptyline-b-2-NB590
[8] = tracer at 1μM, listed as amitriptyline-b-2-NB590

T1 sequence (P30518 whole entry): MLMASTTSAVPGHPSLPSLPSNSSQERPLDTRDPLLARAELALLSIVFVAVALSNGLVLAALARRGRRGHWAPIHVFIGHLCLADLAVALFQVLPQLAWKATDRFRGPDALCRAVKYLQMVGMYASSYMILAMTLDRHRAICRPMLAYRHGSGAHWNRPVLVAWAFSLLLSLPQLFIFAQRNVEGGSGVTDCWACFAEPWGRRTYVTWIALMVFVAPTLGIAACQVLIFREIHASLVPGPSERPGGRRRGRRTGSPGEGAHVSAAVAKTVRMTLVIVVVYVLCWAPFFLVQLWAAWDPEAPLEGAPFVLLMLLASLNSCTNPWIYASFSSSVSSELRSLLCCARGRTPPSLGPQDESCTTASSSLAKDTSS

- NanoBRET Fold Response ([1]; AVPR2, 0.1μM): 1.03
- NanoBRET Fold Response ([1]; AVPR2, 1μM): 1.05
- NanoBRET Fold Response ([2]; C5AR2, 0.1μM): 0.97
- NanoBRET Fold Response ([2]; C5AR2, 1μM): 1.12
- NanoBRET Fold Response ([3]; CXCR5, 0.1μM): 1.04
- NanoBRET Fold Response ([3]; CXCR5, 1μM): 1.12
- NanoBRET Fold Response ([4]; AGTR1, 0.1μM): 1.01
- NanoBRET Fold Response ([4]; AGTR1, 1μM): 1.05
- NanoBRET Fold Response ([5]; 0.1μM): 0.97
- NanoBRET Fold Response ([5]; 1μM): 0.51
- NanoBRET Fold Response ([6]; GHSR, 0.1μM): 1.01
- NanoBRET Fold Response ([6]; GHSR, 1μM): 1.04
Compound: CCOC(=O)c1cc(C#N)c(N2CCC(C(=O)NS(=O)(=O)Cc3ccccc3/C=C/C(=O)NCCNC(=O)CCc3ccc4n3[B-](F)(F)[N+]3=C(c5ccc[nH]5)C=CC3=C4)CC2)nc1C [AZD1283-1-NB590]

- NanoBRET Fold Response ([1]; AVPR2, tracer 0.1μM): 1.01
- NanoBRET Fold Response ([1]; AVPR2, tracer 1μM): 1.04
- NanoBRET Fold Response ([2]; C5AR2, tracer 0.1μM): 1.06
- NanoBRET Fold Response ([2]; C5AR2, tracer 1μM): 1.03
- NanoBRET Fold Response ([3]; CXCR5, tracer 0.1μM): 1.04
- NanoBRET Fold Response ([3]; CXCR5, tracer 1μM): 0.99
- NanoBRET Fold Response ([4]; AGTR1, tracer 0.1μM): 1.00
- NanoBRET Fold Response ([4]; AGTR1, tracer 1μM): 0.96
- NanoBRET Fold Response ([5]; tracer 0.1μM): 0.98
- NanoBRET Fold Response ([5]; tracer 1μM): 1.00
- NanoBRET Fold Response ([6]; GHSR, tracer 0.1μM): 0.98
- NanoBRET Fold Response ([6]; GHSR, tracer 1μM): 1.07
Compound: N#CN=C(NCCCOc1cccc(CN2CCCCC2)c1)NCCNC(=O)CCOCCOCCOCCOCCNC(=O)CCc1ccc2n1[B-](F)(F)[N+]1=C(c3ccc[nH]3)C=CC1=C2 [Aminopotentidine-2-NB590]

Compound: CN(C)CCC=C1c2ccccc2CCc2ccc(C(=O)NCCNC(=O)CCOCCOCCOCCOCCNC(=O)CCc3ccc4n3[B-](F)(F)[N+]3=C(c5ccc[nH]5)C=CC3=C4)cc21 [Amitriptyline-a-2-NB590]
- NanoBRET Fold Response ([1]; tracer at 0.1μM): 0.95
- NanoBRET Fold Response ([1]; tracer at 1μM): 1.05
- NanoBRET Fold Response ([2]; tracer at 0.1μM): 1.11
- NanoBRET Fold Response ([2]; tracer at 1μM): 1.01
- NanoBRET Fold Response ([3]; tracer at 0.1μM): 1.04
- NanoBRET Fold Response ([3]; tracer at 1μM): 1.01
- NanoBRET Fold Response ([4]; tracer at 0.1μM): 1.04
- NanoBRET Fold Response ([4]; tracer at 1μM): 1.00
- NanoBRET Fold Response ([6]; tracer at 0.1μM): 0.97
- NanoBRET Fold Response ([6]; tracer at 1μM): 1.04

Compound: CN(C)CCC=C1c2ccccc2CCc2ccc(C(=O)NCCNC(=O)CCOCCOCCOCCOCCNC(=O)CCc3ccc4n3[B-](F)(F)[N+]3=C(c5ccc[nH]5)C=CC3=C4)cc21 [Amitriptyline-b-2-NB590]
- NanoBRET Fold Response [1, 7]: 1.13
- NanoBRET Fold Response [1, 8]: 0.89
- NanoBRET Fold Response [3, 7]: 1.39
- NanoBRET Fold Response [3, 8]: 1.19
- NanoBRET Fold Response [4, 7]: 1.12
- NanoBRET Fold Response [4, 8]: 0.81
- NanoBRET Fold Response ([5]; tracer 0.1μM): 1.03
- NanoBRET Fold Response ([5]; tracer 1μM): 1.04
- NanoBRET Fold Response [6, 7]: 1.07
- NanoBRET Fold Response [6, 8]: 0.97
